Measurements as given in ChEMBL document CHEMBL1201862, “PubChem BioAssay data set” (2004).
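Where inhibition never reached the appropriate level, the endpoint shown equals the highest concentration tested. Otherwise, values were interpolated linearly from a five-concentration, 48-hour dose response in 96-well plates. GI50: concentration for 50% inhibition of growth.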 Active and inactive are the calls of the source. Rule as the data show it: active = GI50 up to about 1.1 µM and inactive = higher.

What was measured:
Assay in all cases: NCI-60 cell line screen, 48 h
786-0 = tested on: 786-0
A498 = tested on: A498
A549 = tested on: A549
ACHN = tested on: ACHN
BT-549 = tested on: BT-549
CAKI-1 = tested on: CAKI-1
CCRF-CEM = tested on: CCRF-CEM
COLO 205 = tested on: COLO 205
DU-145 = tested on: DU-145
EKVX = tested on: EKVX
HCC 2998 = tested on: HCC 2998
HCT-116 = tested on: HCT-116
HCT-15 = tested on: HCT-15
HL-60 = tested on: HL-60
HOP-62 = tested on: HOP-62
HOP-92 = tested on: HOP-92
HT-29 = tested on: HT-29
Hs-578T = tested on: Hs-578T
IGROV-1 = tested on: IGROV-1
K562 = tested on: K562
KM12 = tested on: KM12
LOX IMVI = tested on: LOX IMVI
M14 = tested on: M14
MCF7 = tested on: MCF7
MDA-MB-231 = tested on: MDA-MB-231
MDA-MB-435 = tested on: MDA-MB-435
MDA-N = tested on: MDA-N
MOLT-4 = tested on: MOLT-4
Malme-3M = tested on: Malme-3M
NCI-H226 = tested on: NCI-H226
NCI-H23 = tested on: NCI-H23
NCI-H460 = tested on: NCI-H460
NCI-H522 = tested on: NCI-H522
NCI/ADR-RES = tested on: NCI/ADR-RES
OVCAR-3 = tested on: OVCAR-3
OVCAR-4 = tested on: OVCAR-4
OVCAR-5 = tested on: OVCAR-5
OVCAR-8 = tested on: OVCAR-8
PC-3 = tested on: PC-3
RPMI-8226 = tested on: RPMI-8226
RXF 393 = tested on: RXF 393
SF-268 = tested on: SF-268
SF-295 = tested on: SF-295
SF-539 = tested on: SF-539
SK-MEL-28 = tested on: SK-MEL-28
SK-MEL-2 = tested on: SK-MEL-2
SK-MEL-5 = tested on: SK-MEL-5
SK-OV-3 = tested on: SK-OV-3
SN12C = tested on: SN12C
SNB-19 = tested on: SNB-19
SNB-75 = tested on: SNB-75
SR = tested on: SR
SW-620 = tested on: SW-620
T47D = tested on: T47D
TK-10 = tested on: TK-10
U-251 = tested on: U-251
UACC-257 = tested on: UACC-257
UACC-62 = tested on: UACC-62
UO-31 = tested on: UO-31

## CCCCCCCCCCCCN(CC(O)C(O)C(OC1OC(CO)C(O)C(O)C1O)C(O)CO)C(=O)CCCCCCCCCCC (stereo not drawn)
786-0
  GI50: 19 µM (inactive)
A498
  GI50: 24.7 µM (inactive)
A549
  GI50: 23.6 µM (inactive)
ACHN
  GI50: 16.9 µM (inactive)
BT-549
  GI50: 20.4 µM (inactive)
CAKI-1
  GI50: 19 µM (inactive)
CCRF-CEM
  GI50: 31.9 µM (inactive)
COLO 205
  GI50: 20.4 µM (inactive)
DU-145
  GI50: 20.6 µM (inactive)
EKVX
  GI50: 18.8 µM (inactive)
HCC 2998
  GI50: 18.4 µM (inactive)
HCT-116
  GI50: 19.5 µM (inactive)
HCT-15
  GI50: 18.6 µM
HL-60
  GI50: 33.7 µM (inactive)
HOP-62
  GI50: 25.8 µM (inactive)
HOP-92
  GI50: 21.9 µM (inactive)
HT-29
  GI50: 19 µM (inactive)
Hs-578T
  GI50: 26.3 µM (inactive)
IGROV-1
  GI50: 19.9 µM (inactive)
K562
  GI50: 19 µM (inactive)
KM12
  GI50: 20.2 µM (inactive)
LOX IMVI
  GI50: 21.3 µM (inactive)
M14
  GI50: 19.5 µM (inactive)
MCF7
  GI50: 28.1 µM (inactive)
MDA-MB-231
  GI50: 22.6 µM (inactive)
MDA-MB-435
  GI50: 16.8 µM (inactive)
MDA-N
  GI50: 21 µM (inactive)
MOLT-4
  GI50: 25.1 µM (inactive)
Malme-3M
  GI50: 18.5 µM (inactive)
NCI-H226
  GI50: 23.4 µM (inactive)
NCI-H23
  GI50: 21.4 µM (inactive)
NCI-H460
  GI50: 20.5 µM (inactive)
NCI-H522
  GI50: 24.1 µM (inactive)
NCI/ADR-RES
  GI50: 23.8 µM (inactive)
OVCAR-3
  GI50: 21.8 µM (inactive)
OVCAR-4
  GI50: 21.4 µM (inactive)
OVCAR-5
  GI50: 41 µM (inactive)
OVCAR-8
  GI50: 23 µM (inactive)
PC-3
  GI50: 25.2 µM (inactive)
RPMI-8226
  GI50: 29 µM (inactive)
RXF 393
  GI50: 26.9 µM (inactive)
SF-268
  GI50: 20.1 µM (inactive)
SF-295
  GI50: 19 µM (inactive)
SF-539
  GI50: 39.8 µM (inactive)
SK-MEL-28
  GI50: 17.5 µM (inactive)
SK-MEL-2
  GI50: 23 µM (inactive)
SK-MEL-5
  GI50: 17.5 µM (inactive)
SK-OV-3
  GI50: 22.3 µM (inactive)
SN12C
  GI50: 22.1 µM (inactive)
SNB-19
  GI50: 17.9 µM (inactive)
SNB-75
  GI50: 18.5 µM (inactive)
SR
  GI50: 33.1 µM (inactive)
SW-620
  GI50: 19 µM (inactive)
T47D
  GI50: 28.1 µM (inactive)
TK-10
  GI50: 16.3 µM (inactive)
U-251
  GI50: 18.6 µM (inactive)
UACC-257
  GI50: 20.9 µM (inactive)
UACC-62
  GI50: 20.2 µM (inactive)
UO-31
  GI50: 21.5 µM (inactive)

## Cc1cc(C)n(CC(Cn2nc(C)cc2C)=C(/C(Cl)=C(/Cl)Nc2ccc([N+](=O)[O-])cc2)[N+](=O)[O-])n1
786-0
  GI50: 5.06 µM (inactive)
A498
  GI50: 3.37 µM (inactive)
A549
  GI50: 3.43 µM (inactive)
ACHN
  GI50: 3.25 µM (inactive)
BT-549
  GI50: 3.33 µM (inactive)
CAKI-1
  GI50: 1.81 µM (inactive)
CCRF-CEM
  GI50: 0.558 µM (active)
COLO 205
  GI50: 2.67 µM (inactive)
DU-145
  GI50: 4.03 µM (inactive)
EKVX
  GI50: 3.85 µM (inactive)
HCC 2998
  GI50: 3.52 µM (inactive)
HCT-116
  GI50: 3.7 µM (inactive)
HCT-15
  GI50: 4.73 µM
HL-60
  GI50: 1.54 µM (inactive)
HOP-62
  GI50: 4.46 µM (inactive)
HOP-92
  GI50: 2.47 µM (inactive)
HT-29
  GI50: 3.28 µM (inactive)
Hs-578T
  GI50: 5.31 µM (inactive)
IGROV-1
  GI50: 2.62 µM (inactive)
K562
  GI50: 1.65 µM (inactive)
KM12
  GI50: 1.81 µM (inactive)
LOX IMVI
  GI50: 2.3 µM (inactive)
M14
  GI50: 4.37 µM (inactive)
MCF7
  GI50: 3.71 µM (inactive)
MDA-MB-231
  GI50: 6.05 µM (inactive)
MDA-MB-435
  GI50: 1.84 µM (inactive)
MDA-N
  GI50: 3.74 µM (inactive)
MOLT-4
  GI50: 1.79 µM (inactive)
Malme-3M
  GI50: 3.61 µM (inactive)
NCI-H226
  GI50: 10.2 µM (inactive)
NCI-H23
  GI50: 2.43 µM (inactive)
NCI-H460
  GI50: 3.33 µM (inactive)
NCI-H522
  GI50: 2.09 µM (inactive)
NCI/ADR-RES
  GI50: 8.07 µM (inactive)
OVCAR-3
  GI50: 4 µM (inactive)
OVCAR-4
  GI50: 1.02 µM (active)
OVCAR-5
  GI50: 7.78 µM (inactive)
OVCAR-8
  GI50: 3.35 µM (inactive)
PC-3
  GI50: 3.42 µM (inactive)
RPMI-8226
  GI50: 1.93 µM (inactive)
RXF 393
  GI50: 3.59 µM (inactive)
SF-268
  GI50: 5.01 µM (inactive)
SF-295
  GI50: 5.87 µM (inactive)
SF-539
  GI50: 3.52 µM (inactive)
SK-MEL-28
  GI50: 7.06 µM (inactive)
SK-MEL-2
  GI50: 3.05 µM (inactive)
SK-MEL-5
  GI50: 2.29 µM (inactive)
SK-OV-3
  GI50: 3.37 µM (inactive)
SN12C
  GI50: 3.82 µM (inactive)
SNB-19
  GI50: 4.49 µM (inactive)
SNB-75
  GI50: 4.67 µM (inactive)
SR
  GI50: 2.48 µM (inactive)
SW-620
  GI50: 2.42 µM (inactive)
T47D
  GI50: 3.33 µM (inactive)
TK-10
  GI50: 3.78 µM (inactive)
U-251
  GI50: 3.53 µM (inactive)
UACC-257
  GI50: 3.4 µM (inactive)
UACC-62
  GI50: 3.9 µM (inactive)
UO-31
  GI50: 2.74 µM (inactive)
